One block for each molecule: values may come before it.
Assay: Amounts of β-lactam antibiotic, β-lactamase inhibitor and aminoglycoside antibiotic in solution over time (reverse-phase LC/HPLC)
Type: physicochemical
Description: The amounts of β-lactam antibiotics and β-lactamase inhibitor were determined using C18 reverse-phase LC and UV-VIS detector (Tianjin […] Co., Ltd., analysis method No. HM-K-03). The content of aminoglycoside antibiotics was measured using reverse-phase HPLC and evaporation-light-scattering detector (ELSD detector) (Tianjin […] Co., Ltd., analysis method No. HM-K-08). The amount of antibiotic component at each time point was expressed as a percentage with respect to the amount at the initial time. The relative amount of each antibiotic component in the composition at each time point was expressed as peak area ratio with respect to the corresponding peak area of an external standard.

amount (percentage of initial amount) (in Example 8 solution from freeze-dried powder stored 7 days at 0° C., redissolved in injectable water, 0 h): 102.2% | amount (percentage of initial amount) (in Example 8 solution from freeze-dried powder stored 7 days at 0° C., redissolved in injectable water, 1 h): 97.53% | amount (percentage of initial amount) (in Example 8 solution from freeze-dried powder stored 7 days at 0° C., redissolved in injectable water, 2 h): 94.16% | amount (percentage of initial amount) (in Example 8 solution from freeze-dried powder stored 7 days at 0° C., redissolved in injectable water, 4 h): 94.58% | amount (percentage of initial amount) (in Example 8 solution from freeze-dried powder stored 7 days at 0° C., redissolved in injectable water, 6 h): 95.45% | amount (percentage of initial amount) (in Example 8 solution from freeze-dried powder stored 7 days at 0° C., redissolved in injectable water, 8 h): 94.44% | amount (percentage of initial amount) (in Example 16 solution, pH 6.5, room temperature, 0 h): 98.77% | amount (percentage of initial amount) (in Example 16 solution, pH 6.5, room temperature, 1 h): 108.2% | amount (percentage of initial amount) (in Example 16 solution, pH 6.5, room temperature, 2 h): 110.8% | amount (percentage of initial amount) (in Example 16 solution, pH 6.5, room temperature, 4 h): 97.39% | amount (percentage of initial amount) (in Example 16 solution, pH 6.5, room temperature, 6 h): 106.3% | amount (percentage of initial amount) (in Example 16 solution, pH 6.5, room temperature, 8 h): 106.3% | amount (percentage of initial amount) (in Example 21 solution, pH 6.75, room temperature (22° C.), 0 h): 93.36% | amount (percentage of initial amount) (in Example 21 solution, pH 6.75, room temperature (22° C.), 1 h): 104.8% | amount (percentage of initial amount) (in Example 21 solution, pH 6.75, room temperature (22° C.), 2 h): 100.0% | amount (percentage of initial amount) (in Example 21 solution, pH 6.75, room temperature (22° C.), 4 h): 96.58% | amount (percentage of initial amount) (in Example 21 solution, pH 6.75, room temperature (22° C.), 6 h): 106.1% | amount (percentage of initial amount) (in Example 21 solution, pH 6.75, room temperature (22° C.), 8 h): 107.1%
Compound: C[C@]1(Cn2ccnn2)[C@H](C(=O)O)N2C(=O)C[C@H]2S1(=O)=O [Tazobactam sodium]

amount (percentage of initial amount) (in Example 11 solution (pH 6.0) from freeze-dried powder stored 7 days at 0° C., redissolved, 0 h): 97.11% | amount (percentage of initial amount) (in Example 11 solution (pH 6.0) from freeze-dried powder stored 7 days at 0° C., redissolved, 1 h): 90.83% | amount (percentage of initial amount) (in Example 11 solution (pH 6.0) from freeze-dried powder stored 7 days at 0° C., redissolved, 2 h): 98.18% | amount (percentage of initial amount) (in Example 11 solution (pH 6.0) from freeze-dried powder stored 7 days at 0° C., redissolved, 4 h): 93.69% | amount (percentage of initial amount) (in Example 11 solution (pH 6.0) from freeze-dried powder stored 7 days at 0° C., redissolved, 6 h): 91.23% | amount (percentage of initial amount) (in Example 11 solution (pH 6.0) from freeze-dried powder stored 7 days at 0° C., redissolved, 8 h): 94.39% | amount (percentage of initial amount) (in Example 17 solution, pH 6.5, room temperature, 0 h): 116.6% | amount (percentage of initial amount) (in Example 17 solution, pH 6.5, room temperature, 1 h): 94.83% | amount (percentage of initial amount) (in Example 17 solution, pH 6.5, room temperature, 2 h): 91.86% | amount (percentage of initial amount) (in Example 17 solution, pH 6.5, room temperature, 4 h): 91.96% | amount (percentage of initial amount) (in Example 17 solution, pH 6.5, room temperature, 6 h): 91.52% | amount (percentage of initial amount) (in Example 17 solution, pH 6.5, room temperature, 8 h): 98.56% | amount (percentage of initial amount) (in Example 18 solution (2.5% fructose), pH 6.5, room temperature, 0 h): 96.48% | amount (percentage of initial amount) (in Example 18 solution (2.5% fructose), pH 6.5, room temperature, 1 h): 95.90% | amount (percentage of initial amount) (in Example 18 solution (2.5% fructose), pH 6.5, room temperature, 2 h): 71.70% | amount (percentage of initial amount) (in Example 18 solution (2.5% fructose), pH 6.5, room temperature, 4 h): 91.78% | amount (percentage of initial amount) (in Example 18 solution (2.5% fructose), pH 6.5, room temperature, 6 h): 93.08% | amount (percentage of initial amount) (in Example 18 solution (2.5% fructose), pH 6.5, room temperature, 8 h): 97.69%
Compound: CC1(C)S[C@@H]2[C@H](NC(=O)[C@H](NC(=O)N3CCN(S(C)(=O)=O)C3=O)c3ccccc3)C(=O)N2[C@H]1C(=O)O [Mezlocillin sodium]

amount (percentage of initial amount) (in Example 19 solution, pH 6.75, room temperature, 0 h): 99.91% | amount (percentage of initial amount) (in Example 19 solution, pH 6.75, room temperature, 1 h): 99.50% | amount (percentage of initial amount) (in Example 19 solution, pH 6.75, room temperature, 2 h): 98.88% | amount (percentage of initial amount) (in Example 19 solution, pH 6.75, room temperature, 4 h): 99.45% | amount (percentage of initial amount) (in Example 19 solution, pH 6.75, room temperature, 6 h): 98.56% | amount (percentage of initial amount) (in Example 19 solution, pH 6.75, room temperature, 8 h): 99.36% | amount (percentage of initial amount) (in Example 20 solution (no EDTA), pH 6.75, room temperature, 0 h): 95.98% | amount (percentage of initial amount) (in Example 20 solution (no EDTA), pH 6.75, room temperature, 1 h): 91.49% | amount (percentage of initial amount) (in Example 20 solution (no EDTA), pH 6.75, room temperature, 2 h): 85.05% | amount (percentage of initial amount) (in Example 20 solution (no EDTA), pH 6.75, room temperature, 4 h): 91.00% | amount (percentage of initial amount) (in Example 20 solution (no EDTA), pH 6.75, room temperature, 6 h): 81.93% | amount (percentage of initial amount) (in Example 20 solution (no EDTA), pH 6.75, room temperature, 8 h): 89.98%
Compound: NCC[C@H](O)C(=O)N[C@@H]1C[C@H](N)[C@@H](O[C@H]2O[C@H](CN)[C@@H](O)[C@H](O)[C@H]2O)[C@H](O)[C@H]1O[C@H]1O[C@H](CO)[C@@H](O)[C@H](N)[C@H]1O [Amikacin]

Reference: patent US20090155387A1, “STABLE PHARMACEUTICAL COMPOSITION COMPRISING BETA-LACTAM ANTIBIOTIC AND ION-CHELATING AGENT” (priority 2006, published 2009)
